# Legend:
# [1] = Total selenium concentrations in the tissues of red seabream after feeding selenium-supplemented dry pellet (fluorometric assay with 2,3-diamino-naphthalene); type: in vivo, red seabream Pagrus major
# Experimental: (§1) Red seabream fry (average body weight of 5.4 g) was obtained from private seed and seedling production company (Oita, Japan) and cultured for seven months up to average body weight of 250 g. Chemical composition of control diet was containing crude protein 50%; […]; Ca 2.3%; ash 16.0%; and phosphorus 1.5%. Each selenium-added diet was fed twice a day for 4 weeks in an amount of 1% of the average body weight. Body weight of fish in each tank was measured when fish were sampled and amount of diet was calculated according to the body weight of every sampling day. The added selenium concentrations in the diets were set in 0 ppm, 1 ppm, and 2 ppm selenium according to the previous study (Tohfuku et al. [2021]). After that, they were fed a commercial diet twice a day for 1 week. The test groups were the control group, the sodium selenite group (1 mg Se/kg feeding group and 2 mg Se/kg feeding group), the selenomethionine group (1 mg Se/kg feeding group and 2 mg Se/kg feeding group), and the selenoneine group (1 mg Se/kg feeding group and 2 mg Se/kg feeding group) were set. The number of fish raised was 15 from the start of rearing in each tank until the 2nd week, 10 from the 3rd to 4th week, and 5 in the 5th week. […] We reared red seabream by feeding of 1% dry pellet containing of sodium selenite, selenomethionine, or selenoneine of body weight twice a day for 4 weeks. After that, we replaced to 1% of commercial dry pellet of body weight twice a day for 1 week from the selenium supplementation. Average water temperature was 20.9 ℃ (19.0–23.9 ℃) and average dissolved oxygen was 7.41 mg/L. The body weight change of red seabream for 5 weeks is shown in Table S2.
# (§2) Red seabream was anesthetized by adding 2 mL of anesthetic (1/100 volume of 2-methylquinoline dissolved in ethanol) to 1 L of seawater. A small amount of an anticoagulant (heparin sodium dissolved in physiological saline; 800 units/mL) was placed in a syringe in advance, and blood was collected from the caudal peduncle of each fish. The collected blood was centrifuged at 5000 rpm for 5 min (4 °C), divided into a plasma fraction and a precipitated fraction, and stored at − 50 °C. The precipitated fraction was used for analysis as the blood cell fraction.
# Total selenium concentration was determined by fluorometric assay with 2,3-diamino-naphthalene, after digestion in 1.5 mL of nitric acid and perchloric acid (1:2 in volume) at 200–220 ℃ (Watkinson [1966]; Yamashita and Yamashita [2010]).
# [2] = Uptake factor of selenoneine from feed (ratio of concentration in muscle or blood cells to feed); type: in vivo, red seabream Pagrus major; details: artificial feed containing selenoneine at 0.1–2 mg Se/kg
# Experimental: Uptake factor is defined as a ratio of selenoneine concentration in muscle or blood cells to those in feed, and is the same as the biomagnification factor (Yamada et al. [1994]). Thus, uptake factor is an indicator showing the degree of accumulation of selenoneine in muscle or blood cells by dietary intake of feed. The uptake factor was calculated by the following equation on the equilibrium period of the dietary exposure experiments:
# Uptake factor = ((Cen − Cb) / CF) × 10^–3where Cen is selenoneine concentration in muscle or blood cells of fish fed with selenoneine-contained feed (ng/kg), Cb is selenoneine concentration in muscle or blood cells of the control fish (ng/kg wet), and CF is the selenoneine concentration in the contained feed (μg/kg).
# [3] = system: red seabream; assay: Oxidation-reduction potential (ORP) in white muscle; type: in vivo, red seabream Pagrus major; details: 2 weeks; 1 or 2 ppm in diet
# Experimental: ORP was measured with ORP electrode (9300, Horiba, Kyoto, […]). The electrode was pierced into muscle and pressed gently until the potential stabilized for 60 s.
# [4] = Selenoneine concentration in white muscle and blood cell by HPLC-ICP-MS (82Se); type: in vivo, red seabream Pagrus major; details: for Selenoneine concentration, blood cell / Selenoneine concentration, white muscle: fish cultured for 4 weeks
# Experimental: as §1, §2
# Selenoneine was separated by chromatography using a Shodex GF-310 column (4.5 mm × 150 mm; Showa Denko, Tokyo, Japan) equilibrated with 100 mM ammonium formate buffer containing 0.1% (w/v) Igepal CA-630 (MP Biomedicals, CA, USA). The injection volume was at 10 μL. The mobile phase delivered at 0.5 mL/min isocratically. ^82Se was detected with high performance liquid chromatography inductively coupled plasma mass spectrometry (HPLC-ICP-MS; Agilent 1100 Series and Agilent 7500 Series, Agilent Technology) (Yamashita and Yamashita [2010]). During separation, selenoneine was eluted at a retention time of 200 s, and the selenium concentration was determined using selenoneine as a standard.
# [5] = system: yellowtail; set-up: method as in Our unpublished research; details: ref Our unpublished research; cited from earlier work
# [6] = 5 weeks (4 weeks supplementation, then 1 week commercial diet), diet 1 mg Se/kg added
# [7] = 5 weeks (4 weeks supplementation, then 1 week commercial diet), diet 2 mg Se/kg added
compound,measurement,setting,value
"C[N+](C)(C)[C@@H](Cc1cnc([Se-])[nH]1)C(=O)O [Selenoneine, 2-selenyl-Nα, Nα, Nα-trimethyl-L-histidine]","Total selenium content, blood cell","[1]; 2 weeks, diet 1 mg Se/kg added",3.98 ± 1.00 mg Se/kg
same,"Total selenium content, blood cell","[1]; 2 weeks, diet 2 mg Se/kg added",9.28 ± 1.67 mg Se/kg
same,"Total selenium content, blood cell","[1]; 4 weeks, diet 1 mg Se/kg added",5.93 ± 1.00 mg Se/kg
same,"Total selenium content, blood cell","[1]; 4 weeks, diet 2 mg Se/kg added",9.94 ± 2.05 mg Se/kg
same,"Total selenium content, blood cell",[1]; [6],4.70 ± 0.53 mg Se/kg
same,"Total selenium content, blood cell",[1]; [7],9.10 ± 1.48 mg Se/kg
same,"Total selenium content, brain","[1]; 2 weeks, diet 1 mg Se/kg added",0.48 ± 0.02 mg Se/kg
same,"Total selenium content, brain","[1]; 2 weeks, diet 2 mg Se/kg added",0.50 ± 0.04 mg Se/kg
same,"Total selenium content, brain","[1]; 4 weeks, diet 1 mg Se/kg added",0.55 ± 0.06 mg Se/kg
same,"Total selenium content, brain","[1]; 4 weeks, diet 2 mg Se/kg added",0.56 ± 0.05 mg Se/kg
same,"Total selenium content, brain",[1]; [6],0.48 ± 0.09 mg Se/kg
same,"Total selenium content, brain",[1]; [7],0.47 ± 0.04 mg Se/kg
same,Tissues in which total selenium was accumulated compared with the control group,[1]; diet 1 mg Se/kg,"white muscle, kidney, spleen, hepatopancreas, brain, and blood cell"
same,Tissues in which total selenium was accumulated compared with the control group,[1]; diet 2 mg Se/kg,"white muscle, heart, kidney, spleen, hepatopancreas, brain, and blood cell"
same,"Total selenium content, heart","[1]; 2 weeks, diet 1 mg Se/kg added",1.11 ± 0.11 mg Se/kg
same,"Total selenium content, heart","[1]; 2 weeks, diet 2 mg Se/kg added",1.32 ± 0.18 mg Se/kg
same,"Total selenium content, heart","[1]; 4 weeks, diet 1 mg Se/kg added",1.16 ± 0.11 mg Se/kg
same,"Total selenium content, heart","[1]; 4 weeks, diet 2 mg Se/kg added",1.19 ± 0.09 mg Se/kg
same,"Total selenium content, heart",[1]; [6],1.09 ± 0.15 mg Se/kg
same,"Total selenium content, heart",[1]; [7],1.28 ± 0.29 mg Se/kg
same,"Total selenium content, hepatopancreas","[1]; 2 weeks, diet 1 mg Se/kg added",1.27 ± 0.18 mg Se/kg
same,"Total selenium content, hepatopancreas","[1]; 2 weeks, diet 2 mg Se/kg added",1.51 ± 0.26 mg Se/kg
same,"Total selenium content, hepatopancreas","[1]; 4 weeks, diet 1 mg Se/kg added",1.22 ± 0.14 mg Se/kg
same,"Total selenium content, hepatopancreas","[1]; 4 weeks, diet 2 mg Se/kg added",1.35 ± 0.18 mg Se/kg
same,"Total selenium content, hepatopancreas",[1]; [6],1.34 ± 0.26 mg Se/kg
same,"Total selenium content, hepatopancreas",[1]; [7],1.40 ± 0.25 mg Se/kg
same,"Total selenium content, kidney","[1]; 2 weeks, diet 1 mg Se/kg added",3.22 ± 0.18 mg Se/kg
same,"Total selenium content, kidney","[1]; 2 weeks, diet 2 mg Se/kg added",3.46 ± 0.43 mg Se/kg
same,"Total selenium content, kidney","[1]; 4 weeks, diet 1 mg Se/kg added",3.17 ± 0.40 mg Se/kg
same,"Total selenium content, kidney","[1]; 4 weeks, diet 2 mg Se/kg added",4.03 ± 0.72 mg Se/kg
same,"Total selenium content, kidney",[1]; [6],2.96 ± 0.32 mg Se/kg
same,"Total selenium content, kidney",[1]; [7],3.51 ± 0.49 mg Se/kg
same,"Total selenium content, spleen","[1]; 2 weeks, diet 1 mg Se/kg added",3.45 ± 0.56 mg Se/kg
same,"Total selenium content, spleen","[1]; 2 weeks, diet 2 mg Se/kg added",4.69 ± 0.79 mg Se/kg
same,"Total selenium content, spleen","[1]; 4 weeks, diet 1 mg Se/kg added",3.23 ± 0.37 mg Se/kg
same,"Total selenium content, spleen","[1]; 4 weeks, diet 2 mg Se/kg added",5.20 ± 1.01 mg Se/kg
same,"Total selenium content, spleen",[1]; [6],3.15 ± 0.83 mg Se/kg
same,"Total selenium content, spleen",[1]; [7],3.16 ± 0.68 mg Se/kg
same,"Total selenium content, white muscle","[1]; 2 weeks, diet 1 mg Se/kg added",0.39 ± 0.05 mg Se/kg
same,"Total selenium content, white muscle","[1]; 2 weeks, diet 2 mg Se/kg added",0.35 ± 0.04 mg Se/kg
same,"Total selenium content, white muscle","[1]; 4 weeks, diet 1 mg Se/kg added",0.40 ± 0.05 mg Se/kg
same,"Total selenium content, white muscle","[1]; 4 weeks, diet 2 mg Se/kg added",0.43 ± 0.04 mg Se/kg
same,"Total selenium content, white muscle",[1]; [6],0.38 ± 0.04 mg Se/kg
same,"Total selenium content, white muscle",[1]; [7],0.38 ± 0.03 mg Se/kg
same,Uptake factor of selenoneine in the blood,[2]; blood (blood cells),4.0
same,Uptake factor of selenoneine in the white muscle,[2]; white muscle,0.0062
same,ORP in white muscle compared to control,[3],reduced ORP
same,Selenoneine as share of total selenium in blood cell,"[4]; blood cell, 4 weeks",more than 63%
same,"Selenoneine concentration, blood cell","[4]; blood cell, diet 1 mg Se/kg added",4.72 ± 1.06 mg Se/kg
same,"Selenoneine concentration, blood cell","[4]; blood cell, diet 1 mg Se/kg added, listed as selenoneine",4.72 ± 1.06 mg Se/kg
same,"Selenoneine concentration, blood cell","[4]; blood cell, diet 2 mg Se/kg added",10.29 ± 3.14 mg Se/kg
same,"Selenoneine concentration, blood cell","[4]; blood cell, diet 2 mg Se/kg added, listed as selenoneine",10.29 ± 3.14 mg Se/kg
same,Selenoneine as share of selenium in white muscle,"[4]; white muscle, 4 weeks",4.6–7.0%
same,"Selenoneine concentration, white muscle","[4]; white muscle, diet 1 mg Se/kg added",0.025 ± 0.003 mg Se/kg
same,"Selenoneine concentration, white muscle","[4]; white muscle, diet 1 mg Se/kg added, listed as selenoneine",0.025 ± 0.003 mg Se/kg
same,"Selenoneine concentration, white muscle","[4]; white muscle, diet 2 mg Se/kg added",0.030 ± 0.007 mg Se/kg
same,"Selenoneine concentration, white muscle","[4]; white muscle, diet 2 mg Se/kg added, listed as selenoneine",0.030 ± 0.007 mg Se/kg
same,Selenoneine concentration in white muscle,"[4]; white muscle, selenoneine 1 mg Se/kg administration group",25.4 ± 3.2 µg Se/kg
same,Selenoneine concentration in white muscle,"[4]; white muscle, selenoneine 2 mg Se/kg administration group",30.0 ± 6.6 µg Se/kg
same,Ratio of selenium used in selenoneine in white muscle,"[4]; white muscle, selenoneine 2 ppm administration group",about 7.0%
same,ORP after dietary intake,[5],reduced ORP and approached the ORP of wild fish

# Reference: PMC10665234, “Nutritional Supplementation and Enhanced Antioxidant Function by Dietary Intake of Selenoneine and Other Selenium Compounds in Red Seabream Pagrus major” (Marine Biotechnology (New York, N.y.), 2023)
